Patent EP3246445A1, “LIPOXIN A4 DELIVERY SYSTEM BY A POROUS ELECTROSPUN POLYMERIC MEMBRANE” (Universita' Degli Studi G. D Annunzio Chieti - Pescara, priority 2016, dated 2017)

Key:
[1] = Release of LXA4 from PEO/PDLLA membranes in PBS, RP-HPLC; type: physicochemical
Protocol: The release of LXA4 from the membrane was evaluated using phosphate-buffered saline solution (PBS) (pH 7.4, at 37°C). Pieces (3 cm x 2.5 cm, ∼33 mg, sample) of membranes, empty or LXA4-loaded, were placed in 100 mm dishes containing PBS (8 mL) and maintained at 37 °C, 5% CO2 and 95% humidity for 1, 3, 18, 48, 72 and 96 h. LXA4 release was assessed by HPLC analysis after solid phase extraction. Following incubation with PBS, membranes were diluted with 2 volumes of cold MeOH and stored at -80°C until extraction. All samples were extracted using C-18 cartridges (Bond Elut Varian, Agilent Technologies, Milan) as previously described (Romano M, Luciotti G, Gangemi S, Marinucci F, Prontera C, D'Urbano E, et al. Urinary excretion of lipoxin A(4) and related compounds: development of new extraction techniques for lipoxins. Laboratory investigation; a journal of technical methods and pathology. 2002;82(9):1253-4). Before extraction, PGB2 (50 ng/sample) was added to each sample as internal standard to calculate extraction recovery. Samples were then taken to dryness using a rotary evaporator, suspended in 10 mL of deionized (dd) H2O containing MeOH, acidified to pH 3.5 and rapidly loaded onto C-18 columns previously equilibrated with MeOH and (dd) H2O. After sample loading, columns were washed with (dd) H2O to restore a neutral pH. Samples were eluted with 7 mL of methyl formate and taken to dryness using a Speedvac apparatus. The dried samples were then suspended in MeOH (100 µl) and injected into an HPLC apparatus (Agilent 1100) equipped reverse phase-HPLC with a Hypersil C-18 column (300 mm x 4 mm x 5 µm, Waters) and a photodiode array detector (Waters) for online UV spectroscopy. LXA4 was identified by UV spectroscopy and considering the chromatographic retention time.
LXA4 releasing from the PEO/PDLLA membranes was investigated by incubating membranes with a PBS solution at pH 7.4 for varying times. LXA4 was quantitated by RP-HPLC. […] The maximum release was observed after 48 h (17%), followed by a progressive decrement at 72 h and 96 h (around 11%). Approximately 25% of LXA4 was recovered as trans isomer, in line with the content of Romano M, Serhan CN. Lipoxin generation by permeabilized human platelets. Biochemistry.

hPDLSCs = test: Proliferation assay with LXA4 released from PEO/PDLLA membrane; type: cell-based, Human; settings: LXA4 eluted from PEO/PDLLA membranes in PBS
Protocol: Bioptic samples of periodontal ligament were obtained from volunteers aged 20-35 years, exempt from systemic or oral disease, after undesigning the informed consent deed. The study was approved by the Medical Ethic Committee of the "G. D'Annunzio" University, Chieti, Italy (n°266/17.04.14). The periodontal tissue obtained by bioptic samples, grinded and washed several times with PBS (Lonza, Basel, Switzerland) was cultured using TheraPEAK™MSCGM-CD™ BulletKit serum free (MSCGM-CD) medium for the growth of human mesamchimal steam cells (MSCGM-CD) (Lonza), to minimize the exposure to substances of non-human origin. Human periodontal ligament stem cells (hPDLSCs) were obtained and cultured as reported in Trubiani O, Piattelli A, Gatta V, Marchisio M, Diomede F, D'Aurora M, et al. Assessment of an efficient xeno-free culture system of human periodontal ligament stem cells. […]
For the proliferation assay with LXA4 released from PEO/PDLLA membrane, hPDLSCs (2 x 10^3 cells/well) were seeded in 96-well microplates with complete medium overnight at 37 °C and 5%CO2. […] Data were expressed as proliferation index, calculated as the ratio between values from cells exposed to membrane-eluted LXA4 and from cells exposed to vehicle only (ethanol) of LXA4. […]
The proliferation and migration of hPDLSC growth a direct contact with fragment of LXA4-loaded membrane were evaluated. […]

- LXA4 released ([1]; PBS pH 7.4, 37 °C, 72 h): around 11%
- LXA4 released ([1]; PBS pH 7.4, 37 °C, 96 h): around 11%
- LXA4 released, maximum release ([1]; PBS pH 7.4, 37 °C, after 48 h): 17%
- LXA4 released, of the total LXA4 added to membranes ([1]; PBS pH 7.4, 37 °C, within 3 h): approximately 15%
- LXA4 recovered as trans isomer ([1]; of the total LXA4 eluted from the membranes): Approximately 25%
SMILES: CCCCC[C@H](O)/C=C/C=C\C=C\C=C\[C@@H](O)[C@@H](O)CCCC(=O)O [LXA4, Lipoxin A4]
- biological activities on hPDLSCs after release (hPDLSCs): retained its biological activities on hPDLSCs
